Assay results taken from patent publication US9763572B2, “Quantitative pupillometry as a bedside predictor of postoperative respiratory depression” (Children's Hospital Medical Center, priority 2015, dated 2017).

Assays:
[1] = Blood morphine, M3G and M6G concentrations in the recovery room (LC-MS/MS) in children undergoing tonsillectomy; details: mean±SD
[2] = tested on: children undergoing tonsillectomy; experiment: Postoperative respiratory depression and its association with ABCB1 genetic variants in children given morphine; details: per added copy of minor allele (G) of ABCB1 rs9282564; 263 children; 95% CI: 2.1-10.8, p=0.0002
pupil [3] = experiment: Serial quantitative pupillometry after intraoperative morphine in the pediatric study; type: in vivo, children
pupil [4] = details: used as prophylactic antiemetic; cited from earlier work
[5] = children who did not have respiratory depression with prolonged PACU stay
[6] = children who had respiratory depression and prolonged PACU stay due to respiratory depression

| SMILES | levels in the recovery room [1, 5] [ng/mL] | levels in the recovery room [1, 6] [ng/mL] | increase in odds of a prolonged hospital stay due to postoperative respiratory depression [2] [fold] | pupillary maximum constriction velocity (MCV) vs blood morphine concentration (pupil [3]; FIG. 3, perioperative time points) | pupillary measures (maximum and minimum pupillary sizes, constriction percentage, maximum constriction velocity) (pupil [3]; after intraoperative morphine bolus, under general anesthesia, FIGS. 2A-2D) | PACU pupillary measures compared to the baseline values (pupil [3]; recovery room (PACU) vs preoperative baseline) | interference with quantitative pupillometry responses (pupil [4]) |
| --- | --- | --- | --- | --- | --- | --- | --- |
| CN1CC[C@]23c4c5ccc(O[C@@H]6O[C@H](C(=O)O)[C@@H](O)[C@H](O)[C@H]6O)c4O[C@H]2[C@@H](O)C=C[C@H]3[C@H]1C5 [M3G, Morphine-3 Glucuronide] | 0.0607 ± 0.0451 | 0.0431 ± 0.037 |  |  |  |  |  |
| CN1CC[C@]23c4c5ccc(O)c4O[C@H]2[C@@H](O[C@@H]2O[C@H](C(=O)O)[C@@H](O)[C@H](O)[C@H]2O)C=C[C@H]3[C@H]1C5 [M6G, Morphine-6 Glucuronide] | 0.0117 ± 0.0071 | 0.0091 ± 0.0039 |  |  |  |  |  |
| CN1CC[C@]23c4c5ccc(O)c4O[C@H]2[C@@H](O)C=C[C@H]3[C@H]1C5 [morphine] | 8.4 ± 7.9 | 2.25 ± 2.3 | 4.7 | decreased as blood morphine concentration increased | incremental reductions in all these pupillary measures | residual depressive effects |  |
| Cc1nccn1CC1CCc2c(c3ccccc3n2C)C1=O (centres unmarked) [ondansetron] |  |  |  |  |  |  | does not interfere with quantitative pupillometry responses |
